The values below come from patent publication US7592358B2 (Boehringer Ingelheim International GmbH, priority 2004, dated 2009).

This test has as its target T1, hMCH-1R (Homo sapiens, UniProt Q99705).
T1 construct: expressed in transfected cells; host or cells: CHO/Galpha16 cells
The test can be described thus: MCH-1 receptor binding test. Particulars: ^125I-MCH binding to membranes from CHO/Galpha16 cells stably transfected with human hMCH-1R. The protocol:
Membranes from CHO/Galpha16 cells stably transfected with human hMCH-1R are resuspended using a syringe (needle 0.6×25 mm) and diluted in test buffer (50 mM HEPES, 10 mM MgCl2, 2 mM EGTA, pH 7.00; 0.1% bovine serum albumin (protease-free), 0.021% bacitracin, 1 μg/mL aprotinin, 1 μg/mL leupeptin and 1 μM phosphoramidone) to a concentration of 5 to 15 μg/mL. […] After the incubation the reaction is filtered using a cell harvester through 0.5% PEI treated fiberglass filters (GF/B, Unifilter Packard). The membrane-bound radioactivity retained on the filter is then determined after the addition of scintillator substance (Packard Microscint 20) in a measuring device (TopCount of Packard). […] The analysis of the concentration binding curve is carried out on the assumption of one receptor binding site.

Structures are written as SMILES.

As usually defined, the IC50 is the point on the concentration scale where inhibition reaches its midpoint. A lower IC50 goes with higher potency.

T1 sequence (Q99705 whole entry): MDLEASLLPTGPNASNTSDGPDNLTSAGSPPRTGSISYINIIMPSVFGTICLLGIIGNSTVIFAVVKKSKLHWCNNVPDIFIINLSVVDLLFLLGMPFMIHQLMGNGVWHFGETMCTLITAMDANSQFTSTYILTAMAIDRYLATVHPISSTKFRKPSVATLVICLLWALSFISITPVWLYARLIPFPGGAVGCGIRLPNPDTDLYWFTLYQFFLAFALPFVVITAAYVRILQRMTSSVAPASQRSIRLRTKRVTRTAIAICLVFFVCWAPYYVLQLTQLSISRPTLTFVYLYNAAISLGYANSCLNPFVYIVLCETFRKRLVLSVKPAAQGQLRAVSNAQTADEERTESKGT

With `Cc1cc(C#Cc2ccc(-c3ccc(Cl)cc3)cn2)ccc1OCCN(C1CCCCC1)C1CCCC1` [Example 1.9, (2-{4-[5-(4-chlorophenyl)pyridin-2-ylethynyl]-2-methylphenoxy}ethyl)cyclohexylcyclopentylamine], the IC50 came out at 6.2 nM.
In the case of `CC1(O)CCN(Cc2cc3cc(C#Cc4ccc(-c5ccc(Cl)cc5)cn4)ccc3s2)CC1` [Example 22.3, 1-{5-[5-(4-chlorophenyl)pyridin-2-ylethynyl]benzo[b]thiophen-2-ylmethyl}-4-methylpiperidin-4-ol], the half-inhibitory concentration (IC50) is 31 nM.
